Results on 39 molecules are retold here after patent US9193731B2, “Antimicrobial compounds and methods of making and using the same” (Melinta Therapeutics, Inc., priority 2009, dated 2015).

In this experiment the test system is Escherichia coli strain ATCC25922. Briefly: standard microdilution assay to determine minimum inhibitory concentrations (MICs). It is filed as cell-based. The conditions noted are these: for E. coli ATCC25922 MIC: Escherichia coli strain ATCC25922, microdilution. The gist of the method:
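E. coli strain ATCC25922 tested per CLSI microdilution methodology (about 100 microliters per well) to find minimum inhibitory concentrations. Activity scored categorically at a 16 micrograms/ml threshold.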

Each structure is given as a SMILES string.

As to `N=C(N)NCCCNCc1ccc(-c2cn3cc(C(=O)Nc4ccc(F)cc4)[nH]c3nc2=O)cc1` [Compound 965], the MIC (Escherichia coli, ATCC25922, Escherichia coli strain ATCC25922, microdilution, read-out: E. coli ATCC25922 MIC) was > 16 µg/mL.

Regarding `N=C(N)NCCCN1CC=C(n2cc3cc(-c4ccc(S(=O)(=O)N(Cc5ccc(Cl)c(Cl)c5)C5CCNCC5)cc4)[nH]c3nc2=O)CC1` [Compound 966], the “E. coli ATCC25922 MIC” value was “+ (a “+” indicates that the compound has an MIC value of 16 micrograms/ml or less)”.

Regarding `N=C(N)NCCCN1CC=C(n2cc3cc(-c4ccc(S(=O)(=O)N(CCCC5CCCC5)C5CCNCC5)cc4)[nH]c3nc2=O)CC1` [Compound 967], the “E. coli ATCC25922 MIC” value was “+ (a “+” indicates that the compound has an MIC value of 16 micrograms/ml or less)”.

On to `CNCc1ccc(-n2cc3cc(-c4ccc(S(=O)(=O)N(CC5COc6ccccc6O5)C5CCNCC5)cc4)[nH]c3nc2=O)cc1` (stereo not drawn) [Compound 968], for which the “E. coli ATCC25922 MIC” value is given as “− (a “−” indicates that the compound has an MIC value greater than 16 micrograms/ml)”.

On to `N=C(N)NCCCN1CC=C(n2cc3cc(-c4ccc(S(=O)(=O)N(CC5CC5)C5CCNCC5)cc4)[nH]c3nc2=O)CC1` [Compound 969], for which the “E. coli ATCC25922 MIC” value was “+ (a “+” indicates that the compound has an MIC value of 16 micrograms/ml or less)”.

For `N=C(N)NCCCNCc1ccc(-n2cc3cc(-c4cc(C(=O)NCC(F)F)cc(N5CCNCC5)c4)[nH]c3nc2=O)cc1` [Compound 970], the “E. coli ATCC25922 MIC” value is “+ (a “+” indicates that the compound has an MIC value of 16 micrograms/ml or less)”.

Take `N=C(N)NCCCNCc1ccc(-n2cc3cc(-c4cc(C(=O)NCC(F)(F)F)cc(N5CCNCC5)c4)[nH]c3nc2=O)cc1` [Compound 971]: the “E. coli ATCC25922 MIC” value was “+ (a “+” indicates that the compound has an MIC value of 16 micrograms/ml or less)”.

As to `N=C(N)NCCCNCc1ccc(-c2cn3cc(C(=O)Nc4cccc(OC(F)(F)F)c4)[nH]c3nc2=O)cc1` [Compound 974], the “E. coli ATCC25922 MIC” value is recorded as “− (a “−” indicates that the compound has an MIC value greater than 16 micrograms/ml)”.

For `N=C(N)NCCCNCc1ccc(-c2cn3cc(CCc4cccc(OC(F)(F)F)c4)[nH]c3nc2=O)cc1` [Compound 975], the “E. coli ATCC25922 MIC” value was “− (a “−” indicates that the compound has an MIC value greater than 16 micrograms/ml)”.

Consider `N=C(N)NCCCNCC(O)Cn1cc2cc(-c3ccc(S(=O)(=O)NC4CCNCC4)cc3)[nH]c2nc1=O` (stereo not drawn) [Compound 977], for which the “E. coli ATCC25922 MIC” value is given as “+ (a “+” indicates that the compound has an MIC value of 16 micrograms/ml or less)”.

For `N=C(N)NCCCNCc1ccc(-n2cc3cc(-c4cc(C(=O)Nc5cc(F)cc(F)c5)cc(N5CCNCC5)c4)[nH]c3nc2=O)cc1` [Compound 978], the “E. coli ATCC25922 MIC” value is on record as “+ (a “+” indicates that the compound has an MIC value of 16 micrograms/ml or less)”.

Regarding `N=C(N)NCCCNCc1ccc(-n2cc3cc(-c4cccc(S(=O)(=O)N(Cc5ccc(Cl)c(Cl)c5)C5CCNCC5)c4)[nH]c3nc2=O)cc1` [Compound 979], the “E. coli ATCC25922 MIC” value is “+ (a “+” indicates that the compound has an MIC value of 16 micrograms/ml or less)”.

For the molecule `N=C(N)NCCCNCc1ccc(-n2cc3cc(-c4cc(C(=O)N5Cc6ccccc6C5)cc(N5CCNCC5)c4)[nH]c3nc2=O)cc1` [Compound 981], the “E. coli ATCC25922 MIC” value is “+ (a “+” indicates that the compound has an MIC value of 16 micrograms/ml or less)”.

Consider `N=C(N)NCCCNCc1ccc(-n2cc3cc(-c4cc(C(=O)Nc5cccc(F)c5)cc(N5CCNCC5)c4)[nH]c3nc2=O)cc1` [Compound 982], for which the “E. coli ATCC25922 MIC” value is “+ (a “+” indicates that the compound has an MIC value of 16 micrograms/ml or less)”.

Turning to `CN(C)Cc1ccc(-n2cc3cc(-c4ccc(S(=O)(=O)N(Cc5ccc(Cl)c(Cl)c5)C5CCNCC5)cc4)[nH]c3nc2=O)cc1` [Compound 983], the “E. coli ATCC25922 MIC” value is “− (a “−” indicates that the compound has an MIC value greater than 16 micrograms/ml)”.

Consider `N=C(N)NCCCN1CC=C(n2cc3cc(-c4ccc(S(=O)(=O)N(CC5COc6ccccc6O5)C5CCNCC5)cc4)[nH]c3nc2=O)CC1` (stereo not drawn) [Compound 984], for which the “E. coli ATCC25922 MIC” value was “+ (a “+” indicates that the compound has an MIC value of 16 micrograms/ml or less)”.

Regarding `NCc1ccc(-n2cc3cc(-c4ccc(S(=O)(=O)N(CC5COc6ccccc6O5)C5CCNCC5)cc4)[nH]c3nc2=O)cc1` (stereo not drawn) [Compound 985], the “E. coli ATCC25922 MIC” value is listed as “− (a “−” indicates that the compound has an MIC value greater than 16 micrograms/ml)”.

Turning to `Cc1cc(C)n2nc(CCCN(C3CCNCC3)S(=O)(=O)c3ccc(-c4cc5cn(-c6ccc(CNCCCNC(=N)N)cc6)c(=O)nc5[nH]4)cc3)nc2n1` [Compound 986], the “E. coli ATCC25922 MIC” value is recorded as “− (a “−” indicates that the compound has an MIC value greater than 16 micrograms/ml)”.

For `CN(C)Cc1ccc(-n2cc3cc(-c4ccc(S(=O)(=O)N(CCCN5CCCCC5)C5CCNCC5)cc4)[nH]c3nc2=O)cc1` [Compound 987], the “E. coli ATCC25922 MIC” value is “− (a “−” indicates that the compound has an MIC value greater than 16 micrograms/ml)”.

Regarding `N=C(N)NCCCNCc1ccc(-n2cc3cc(-c4ccc(S(=O)(=O)N(CC5CN(Cc6ccccc6)CCO5)C5CCNCC5)cc4)[nH]c3nc2=O)cc1` (stereo not drawn) [Compound 988], the “E. coli ATCC25922 MIC” value is reported as “+ (a “+” indicates that the compound has an MIC value of 16 micrograms/ml or less)”.

Consider `CN(Cc1ccccc1)C(=O)c1cc(-c2cc3cn(-c4ccc(CNCCCNC(=N)N)cc4)c(=O)nc3[nH]2)cc(N2CCNCC2)c1` [Compound 989], for which the “E. coli ATCC25922 MIC” value was “+ (a “+” indicates that the compound has an MIC value of 16 micrograms/ml or less)”.

Consider `N=C(N)NCCCNCc1ccc(-n2cc3cc(CCS(=O)(=O)N(CCCc4ccccc4)C4CCNCC4)[nH]c3nc2=O)cc1` [Compound 990], for which the “E. coli ATCC25922 MIC” value was “+ (a “+” indicates that the compound has an MIC value of 16 micrograms/ml or less)”.

In the case of `N=C(N)NCCCNCc1ccc(-n2cc3cc(CCS(=O)(=O)N(CCC4CCCN4)C4CCNCC4)[nH]c3nc2=O)cc1` (stereo not drawn) [Compound 991], the “E. coli ATCC25922 MIC” value is recorded as “+ (a “+” indicates that the compound has an MIC value of 16 micrograms/ml or less)”.

As to `N=C(N)NCCCNCc1ccc(-n2cc3cc(CCS(=O)(=O)N(CCCc4ccccc4F)C4CCNCC4)[nH]c3nc2=O)cc1` [Compound 992], the “E. coli ATCC25922 MIC” value is listed as “+ (a “+” indicates that the compound has an MIC value of 16 micrograms/ml or less)”.

For `N=C(N)NCCCNCc1ccc(-n2cc3cc(-c4cc(C(=O)Nc5ccc(F)cn5)cc(N5CCNCC5)c4)[nH]c3nc2=O)cc1` [Compound 994], the “E. coli ATCC25922 MIC” value is reported as “+ (a “+” indicates that the compound has an MIC value of 16 micrograms/ml or less)”.

On to `N=C(N)NCCCNC(=O)c1ccc(-n2cc3cc(-c4ccc(S(=O)(=O)N(Cc5ccc(Cl)c(Cl)c5)C5CCNCC5)cc4)[nH]c3nc2=O)cc1` [Compound 995], for which the “E. coli ATCC25922 MIC” value was “+ (a “+” indicates that the compound has an MIC value of 16 micrograms/ml or less)”.

As for `N=C(N)NCCCNC(=O)c1ccc(-n2cc3cc(-c4ccc(S(=O)(=O)N(CC5CC5)C5CCNCC5)cc4)[nH]c3nc2=O)cc1` [Compound 996], the “E. coli ATCC25922 MIC” value is on record as “+ (a “+” indicates that the compound has an MIC value of 16 micrograms/ml or less)”.

Take `N=C(N)NCCCNCc1ccc(-n2cc3cc(-c4cc(C(=O)NCCCF)cc(N5CCNCC5)c4)[nH]c3nc2=O)cc1` [Compound 997]: the “E. coli ATCC25922 MIC” value is “+ (a “+” indicates that the compound has an MIC value of 16 micrograms/ml or less)”.

Take `Cc1cc([N+](=O)[O-])nn1CCCN(C1CCNCC1)S(=O)(=O)c1ccc(-c2cc3cn(-c4ccc(CNCCCNC(=N)N)cc4)c(=O)nc3[nH]2)cc1` [Compound 998]: the “E. coli ATCC25922 MIC” value is on record as “+ (a “+” indicates that the compound has an MIC value of 16 micrograms/ml or less)”.

For the molecule `CN(C)Cc1ccc(-n2cc3cc(-c4ccc(S(=O)(=O)N(CC5COc6ccccc6O5)C5CCNCC5)cc4)[nH]c3nc2=O)cc1` (stereo not drawn) [Compound 999], the “E. coli ATCC25922 MIC” value is reported as “− (a “−” indicates that the compound has an MIC value greater than 16 micrograms/ml)”.

In the case of `CN(C)Cc1ccc(-n2cc3cc(-c4ccc(S(=O)(=O)N(CCCC5CCCC5)C5CCNCC5)cc4)[nH]c3nc2=O)cc1` [Compound 1000], the “E. coli ATCC25922 MIC” value was “− (a “−” indicates that the compound has an MIC value greater than 16 micrograms/ml)”.

`CN(C)Cc1ccc(-n2cc3cc(-c4ccc(S(=O)(=O)N(CC5CC5)C5CCNCC5)cc4)[nH]c3nc2=O)cc1` [Compound 1001]: the “E. coli ATCC25922 MIC” value is “− (a “−” indicates that the compound has an MIC value greater than 16 micrograms/ml)”.

On to `NCc1ccc(-n2cc3cc(-c4ccc(S(=O)(=O)N(CCCn5ccc(C(F)(F)F)n5)C5CCNCC5)cc4)[nH]c3nc2=O)cc1` [Compound 1002], for which the “E. coli ATCC25922 MIC” value is given as “− (a “−” indicates that the compound has an MIC value greater than 16 micrograms/ml)”.

Regarding `N=C(N)NCCCNCc1ccc(-n2cc3cc(-c4ccc(S(=O)(=O)N(CCCn5cc(Cl)cn5)C5CCNCC5)cc4)[nH]c3nc2=O)cc1` [Compound 1003], the “E. coli ATCC25922 MIC” value is “+ (a “+” indicates that the compound has an MIC value of 16 micrograms/ml or less)”.

Regarding `N=C(N)NCCCN1CC=C(n2cc3cc(-c4ccc(S(=O)(=O)N(Cc5ccc6nonc6c5)C5CCNCC5)cc4)[nH]c3nc2=O)CC1` [Compound 1004], the “E. coli ATCC25922 MIC” value is listed as “+ (a “+” indicates that the compound has an MIC value of 16 micrograms/ml or less)”.

With `N=C(N)NCCCNCc1ccc(-n2cc3cc(-c4cc(C(=O)N5CCc6ccccc6C5)cc(N5CCNCC5)c4)[nH]c3nc2=O)cc1` [Compound 1009], the “E. coli ATCC25922 MIC” value is on record as “+ (a “+” indicates that the compound has an MIC value of 16 micrograms/ml or less)”.

With `N=C(N)NCCCNC(=O)c1ccc(-n2cc3cc(-c4ccc(S(=O)(=O)N(CC5COc6ccccc6O5)C5CCNCC5)cc4)[nH]c3nc2=O)cc1` (stereo not drawn) [Compound 1010], the “E. coli ATCC25922 MIC” value was “+ (a “+” indicates that the compound has an MIC value of 16 micrograms/ml or less)”.

Turning to `N=C(N)NCCCNC(=O)c1ccc(-n2cc3cc(-c4ccc(S(=O)(=O)N(CCCC5CCCC5)C5CCNCC5)cc4)[nH]c3nc2=O)cc1` [Compound 1011], the “E. coli ATCC25922 MIC” value was “+ (a “+” indicates that the compound has an MIC value of 16 micrograms/ml or less)”.

Take `N=C(N)NCCCNC(c1ccc(-n2cc3cc(-c4ccc(S(=O)(=O)NC5CCNCC5)cc4)[nH]c3nc2=O)cc1)C(F)(F)F` (stereo not drawn) [Compound 1015]: the “E. coli ATCC25922 MIC” value is on record as “+ (a “+” indicates that the compound has an MIC value of 16 micrograms/ml or less)”.

As a reminder, the MIC is the lowest concentration that inhibits growth of the organism.
